Values quoted from earlier work in patent US8486426B2, “Methods and compositions for treatment of dermal conditions” (Kimberly-Clark Worldwide, Inc., priority 2002, dated 2013).

Experiments:
[1] = for deaths among liver failure cases: reported by/through 2001
[2] = in vivo
onychomycosis = details: for Clinical cure rate: total dystrophic onychomycosis (TDO), oral drug
[3] = system: dermatophytes, yeast and molds that typically cause onychomycosis

SMILES: CCC(C)n1ncn(-c2ccc(N3CCN(c4ccc(OCC5COC(Cn6cncn6)(c6ccc(Cl)cc6Cl)O5)cc4)CC3)cc2)c1=O (centres unmarked) [SPORANOX, itraconazol]
- deaths among pulmonary edema cases ([1]; as of 2001): 13 deaths
- cases of liver failure reported ([1]; in vivo): 24 cases
- cases of pulmonary edema (probable association) ([1]; in vivo): 58 cases
- deaths among liver failure cases [1]: 11 deaths

SMILES: CN(C/C=C/C#CC(C)(C)C)Cc1cccc2ccccc12 [TERBINAFINE, terbinafine]
- cases of liver failure reported ([1]; in vivo): 16 cases
- liver transplants reported ([1]; in vivo): 2 liver transplants
- deaths among liver failure cases [1]: 11 deaths
- persistence after treatment [2]: several months
- time at which detectable in the nail bed [2]: one week
- Clinical cure rate (onychomycosis): 37%

SMILES: CCC(C)(C)c1ccc(CC(C)CN2C[C@@H](C)O[C@@H](C)C2)cc1 (some centres unmarked) [LOCERYL, amorolfine]
- effective in share of the cases (onychomycosis; mild onychomycosis with no matrix involvement, topical 5% solution): about 40%

SMILES: OC(Cn1cncn1)(Cn1cncn1)c1ccc(F)cc1F [fluconazole]
- Clinical cure rate (onychomycosis): about 38%

SMILES: Cc1cc(C2CCCCC2)n(O)c(=O)c1 [PENLAC, ciclopirox olamine]
- in vitro action on fungi [3]: fungicidal
- cure rate (onychomycosis; mild to moderate DLSO, average 40% of nail involved, no matrix infection, topical): 7%
